In US9694016B2 (Novartis AG, priority 2013, dated 2017):
pIC50: −log10 of the molar value.

Each molecule was assayed against b-Raf (V600E) (Homo sapiens (Human), UniProt P15056, V600E). Conditions: read-out: b-Raf IC-50; Table 2; AlphaScreen, 3 hours reaction.
Sequence of b-Raf (V600E) (P15056 whole entry V600E): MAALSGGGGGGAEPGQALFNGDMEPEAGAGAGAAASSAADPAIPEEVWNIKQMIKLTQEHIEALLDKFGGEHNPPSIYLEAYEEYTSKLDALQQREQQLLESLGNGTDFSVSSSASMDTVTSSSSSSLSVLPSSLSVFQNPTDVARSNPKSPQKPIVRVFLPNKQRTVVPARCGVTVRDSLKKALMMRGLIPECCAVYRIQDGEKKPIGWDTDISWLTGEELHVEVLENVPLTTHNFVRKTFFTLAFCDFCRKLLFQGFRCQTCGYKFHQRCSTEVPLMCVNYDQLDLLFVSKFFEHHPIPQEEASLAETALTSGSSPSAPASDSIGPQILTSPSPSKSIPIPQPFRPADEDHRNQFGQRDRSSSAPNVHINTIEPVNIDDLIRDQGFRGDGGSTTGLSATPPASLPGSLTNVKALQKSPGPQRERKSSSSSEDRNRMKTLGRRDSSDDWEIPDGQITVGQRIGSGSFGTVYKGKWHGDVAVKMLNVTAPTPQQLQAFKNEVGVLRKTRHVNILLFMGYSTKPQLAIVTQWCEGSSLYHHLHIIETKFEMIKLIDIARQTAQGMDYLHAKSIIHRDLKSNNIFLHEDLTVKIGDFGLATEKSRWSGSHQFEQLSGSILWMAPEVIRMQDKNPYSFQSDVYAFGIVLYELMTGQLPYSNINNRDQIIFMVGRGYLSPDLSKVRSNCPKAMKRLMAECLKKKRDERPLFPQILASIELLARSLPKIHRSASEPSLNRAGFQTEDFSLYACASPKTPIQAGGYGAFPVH
Work on `CCOc1ncc(-c2cc(NC(=O)c3ccnc(S(C)(=O)=O)c3)ccc2C)cc1N1CCOCC1` [Example 232, N-(3-(6-ethoxy-5-morpholinopyridin-3-yl)-4-methylphenyl)-2-(methylsulfonyl)isonicotinamide] yielded a pIC50 of 9.10. In the case of `CCOc1ncc(-c2cc(NC(=O)c3ccnc(C(C)(F)F)c3)ccc2C)cc1N1CCOCC1` [Example 233, 2-(1,1-difluoroethyl)-N-(3-(6-ethoxy-5-morpholinopyridin-3-yl)-4-methylphenyl)isonicotinamide], the pIC50 was 9.22. With `CCOc1ncc(-c2cc(NC(=O)c3cc(C(F)(F)F)c(=O)n(CC)c3)ccc2C)cc1N1CCOCC1` [Example 234, N-(3-(6-ethoxy-5-morpholinopyridin-3-yl)-4-methylphenyl)-1-ethyl-6-oxo-5-(trifluoromethyl)-1,6-dihydropyridine-3-carboxamide] the pIC50 was 9.00. Molecule `CCOc1ncc(-c2cc(NC(=O)c3cccc(C(F)(F)F)c3)ccc2C)cc1N1CCOCC1` [Example 235] has a pIC50 of 9.00. Molecule `CCOc1ncc(-c2cc(NC(=O)c3ccnc(C(F)F)c3)ccc2C)cc1N1CCOCC1` [Example 237, 2-(difluoromethyl)-N-(3-(6-ethoxy-5-morpholinopyridin-3-yl)-4-methylphenyl)isonicotinamide] has a pIC50 of 9.40. Molecule `CCOc1ncc(-c2cc(C(=O)Nc3cccc(S(C)(=O)=O)c3)ccc2C)cc1N1CCOCC1` [Example 238, 3-(6-ethoxy-5-morpholinopyridin-3-yl)-4-methyl-N-(3-(methylsulfonyl)phenyl)benzamide] has a pIC50 of 9.05. `CCOc1ncc(-c2cc(NC(=O)c3ccnc(C(C)(C)C#N)c3)cnc2C)cc1N1CCOCC1` [Example 239, 2-(2-cyanopropan-2-yl)-N-(6′-ethoxy-2-methyl-5′-morpholino-[3,3′-bipyridin]-5-yl)isonicotinamide] was tested, and the pIC50 was 8.25. In the case of `CCOc1ncc(-c2cc(NC(=O)c3ccnc(C(C)(C)O)c3)cnc2C)cc1N1CCOCC1` [Example 240, N-(6′-ethoxy-2-methyl-5′-morpholino-[3,3′-bipyridin]-5-yl)-2-(2-hydroxypropan-2-yl)isonicotinamide], the pIC50 was 7.82. For `CCOc1ncc(-c2cc(NC(=O)c3cc(C(F)(F)F)c(=O)n(CC)c3)cnc2C)cc1N1CCOCC1` [Example 241, N-(6′-ethoxy-2-methyl-5′-morpholino-[3,3′-bipyridin]-5-yl)-1-ethyl-6-oxo-5-(trifluoromethyl)-1,6-dihydropyridine-3-carboxamide], the pIC50 was 8.24. With `CCOc1ncc(-c2cc(NC(=O)c3cccc(S(C)(=O)=O)c3)cnc2C)cc1N1CCOCC1` [Example 242, N-(6′-ethoxy-2-methyl-5′-morpholino-[3,3′-bipyridin]-5-yl)-3-(methylsulfonyl)benzamide] the pIC50 was 8.41. Molecule `CCOc1ncc(-c2cc(NC(=O)c3ccnc(S(C)(=O)=O)c3)cnc2C)cc1N1CCOCC1` [Example 243, N-(6′-ethoxy-2-methyl-5′-morpholino-[3,3′-bipyridin]-5-yl)-2-(methylsulfonyl)isonicotinamide] has a pIC50 of 8.28. `CCOc1ncc(-c2cc(NC(=O)c3cccc(-c4nnco4)c3)cnc2C)cc1N1CCOCC1` [Example 244, N-(6′-ethoxy-2-methyl-5′-morpholino-[3,3′-bipyridin]-5-yl)-3-(1,3,4-oxadiazol-2-yl)benzamide] showed a pIC50 of 8.12. `CCOc1ncc(-c2cc(NC(=O)c3cc(C4CC4)on3)cnc2C)cc1N1CCOCC1` [Example 245, 5-cyclopropyl-N-(6′-ethoxy-2-methyl-5′-morpholino-[3,3′-bipyridin]-5-yl)isoxazole-3-carboxamide] gave a pIC50 of 8.89. `CCOc1ncc(-c2cc(NC(=O)c3ccnc(C(F)(F)F)c3)cnc2C)cc1N1CCOCC1` [Example 246, N-(6′-ethoxy-2-methyl-5′-morpholino-[3,3′-bipyridin]-5-yl)-2-(trifluoromethyl)isonicotinamide] showed a pIC50 of 8.92. Work on `CCOc1ncc(-c2cc(NC(=O)c3ccnc(C(F)F)c3)cnc2C)cc1N1CCOCC1` [Example 247, 2-(difluoromethyl)-N-(6′-ethoxy-2-methyl-5′-morpholino-[3,3′-bipyridin]-5-yl)isonicotinamide] yielded a pIC50 of 8.96. `CCOc1ncc(-c2cc(NC(=O)c3cccc(C(F)(F)F)c3)cnc2C)cc1N1CCOCC1` [Example 248, N-(6′-ethoxy-2-methyl-5′-morpholino-[3,3′-bipyridin]-5-yl)-3-(trifluoromethyl)benzamide] was tested, and the pIC50 was 8.92. `Cc1ncc(NC(=O)c2cc(CN(C)C)cc(C(F)(F)F)c2)cc1-c1cnc(C#N)c(N2CCOCC2)c1` [Example 249, N-(6′-cyano-2-methyl-5′-morpholino-[3,3′-bipyridin]-5-yl)-3-((dimethylamino)methyl)-5-(trifluoromethyl)benzamide] showed a pIC50 of 7.44. `Cc1ncc(NC(=O)c2ccnc(C(C)C)c2)cc1-c1cnc(C#N)c(N2CCOCC2)c1` [Example 251, N-(6′-cyano-2-methyl-5′-morpholino-[3,3′-bipyridin]-5-yl)-2-isopropylisonicotinamide] gave a pIC50 of 8.51. In the case of `CCOc1ncc(-c2cc(NC(=O)c3ccnc(C(C)C)c3)cnc2C)cc1N1CCOCC1` [Example 252, N-(6′-ethoxy-2-methyl-5′-morpholino-[3,3′-bipyridin]-5-yl)-2-isopropylisonicotinamide], the pIC50 was 8.51. `CCOc1ncc(-c2cc(NC(=O)c3ccnc(C(C)(C)F)c3)cnc2C)cc1N1CCOCC1` [Example 253, N-(6′-ethoxy-2-methyl-5′-morpholino-[3,3′-bipyridin]-5-yl)-2-(2-fluoropropan-2-yl)isonicotinamide] was tested, and the pIC50 was 8.59. Work on `CCOc1ncc(-c2cc(NC(=O)c3ccnc(C4CC4)c3)cnc2C)cc1N1CCOCC1` [Example 254, 2-cyclopropyl-N-(6′-ethoxy-2-methyl-5′-morpholino-[3,3′-bipyridin]-5-yl)isonicotinamide] yielded a pIC50 of 8.74. With `CCOc1ncc(-c2cc(NC(=O)c3ccnc(C4COC4)c3)cnc2C)cc1N1CCOCC1` [Example 255, N-(6′-ethoxy-2-methyl-5′-morpholino-[3,3′-bipyridin]-5-yl)-2-(oxetan-3-yl)isonicotinamide] the pIC50 was 8.25. `C=C(C)c1ccc(F)c(NC(=O)c2ccc(C)c(-c3cnc(OCC)c(N4CCOCC4)c3)c2)c1` [Example 256, 3-(6-ethoxy-5-morpholinopyridin-3-yl)-N-(2-fluoro-5-(prop-1-en-2-yl)phenyl)-4-methylbenzamide] showed a pIC50 of 8.74. `CCOc1ncc(-c2cc(NC(=O)c3cc(N4CCN(CC)CC4)cc(C(F)(F)F)c3)cnc2C)cc1N1CCOCC1` [Example 257, N-(6′-ethoxy-2-methyl-5′-morpholino-[3,3′-bipyridin]-5-yl)-3-(4-ethylpiperazin-1-yl)-5-(trifluoromethyl)benzamide] was tested, and the pIC50 was 8.00. Work on `CCOc1ncc(-c2cc(NC(=O)c3cc(CN(C)C)cc(C(F)(F)F)c3)cnc2C)cc1N1CCOCC1` [Example 258, 3-((dimethylamino)methyl)-N-(6′-ethoxy-2-methyl-5′-morpholino-[3,3′-bipyridin]-5-yl)-5-(trifluoromethyl)benzamide] yielded a pIC50 of 8.08. In the case of `CCOc1ncc(-c2cc(NC(=O)c3cnnc(C(F)(F)F)c3)cnc2C)cc1N1CCOCC1` [Example 259, N-(6′-ethoxy-2-methyl-5′-morpholino-[3,3′-bipyridin]-5-yl)-6-(trifluoromethyl)pyridazine-4-carboxamide], the pIC50 was 8.51. `COc1ncc(-c2cc(NC(=O)c3ccnc(C4(C#N)CC4)c3)cnc2Cl)cc1N1CCOCC1` [Example 260, N-(2-chloro-6′-methoxy-5′-morpholino-[3,3′-bipyridin]-5-yl)-2-(1-cyanocyclopropyl)isonicotinamide] was tested, and the pIC50 was 8.54. `COc1ncc(-c2cc(NC(=O)c3ccnc(C(C)(F)F)c3)cnc2Cl)cc1N1CCOCC1` [Example 261, N-(2-chloro-6′-methoxy-5′-morpholino-[3,3′-bipyridin]-5-yl)-2-(1,1-difluoroethyl)isonicotinamide] gave a pIC50 of 8.74. In the case of `COc1ncc(-c2cc(NC(=O)c3ccnc(C(C)(C)F)c3)cnc2Cl)cc1N1CCOCC1` [Example 262, N-(2-chloro-6′-methoxy-5′-morpholino-[3,3′-bipyridin]-5-yl)-2-(2-fluoropropan-2-yl)isonicotinamide], the pIC50 was 8.47. Work on `COc1ncc(-c2cc(NC(=O)c3cnnc(C(F)(F)F)c3)cnc2Cl)cc1N1CCOCC1` [Example 263, N-(2-chloro-6′-methoxy-5′-morpholino-[3,3′-bipyridin]-5-yl)-6-(trifluoromethyl)pyridazine-4-carboxamide] yielded a pIC50 of 8.05. Work on `COc1ncc(-c2cc(NC(=O)c3ccnc(C(C)(C)C#N)c3)cnc2Cl)cc1N1CCOCC1` [Example 264, N-(2-chloro-6′-methoxy-5′-morpholino-[3,3′-bipyridin]-5-yl)-2-(2-cyanopropan-2-yl)isonicotinamide] yielded a pIC50 of 8.07. `Cc1ncc(NC(=O)c2ccnc(C(C)(C)C#N)c2)cc1-c1cnc(N(C)C)c(N2CCOCC2)c1` [Example 265, 2-(2-cyanopropan-2-yl)-N-(6′-(dimethylamino)-2-methyl-5′-morpholino-[3,3′-bipyridin]-5-yl)isonicotinamide] showed a pIC50 of 8.35. `Cc1ncc(NC(=O)c2ccnc(C3(C#N)CC3)c2)cc1-c1cnc(N(C)C)c(N2CCOCC2)c1` [Example 266, 2-(1-cyanocyclopropyl)-N-(6′-(dimethylamino)-2-methyl-5′-morpholino-[3,3′-bipyridin]-5-yl)isonicotinamide] was tested, and the pIC50 was 8.72. Work on `Cc1ncc(NC(=O)c2ccnc(C(C)(F)F)c2)cc1-c1cnc(N(C)C)c(N2CCOCC2)c1` [Example 267] yielded a pIC50 of 8.96. For `Cc1ncc(NC(=O)c2ccnc(C(C)(C)F)c2)cc1-c1cnc(N(C)C)c(N2CCOCC2)c1` [Example 268, N-(6′-(dimethylamino)-2-methyl-5-morpholino-[3,3′-bipyridin]-5-yl)-2-(2-fluoropropan-2-yl)isonicotinamide], the pIC50 was 8.80. `Cc1ncc(NC(=O)c2cc(CN(C)C)cc(C(F)(F)F)c2)cc1-c1cnc(N(C)C)c(N2CCOCC2)c1` [Example 269, N-(6′-(dimethylamino)-2-methyl-5′-morpholino-[3,3′-bipyridin]-5-yl)-3-((dimethylamino)methyl)-5-(trifluoromethyl)benzamide] showed a pIC50 of 8.62.
